Laboratory results taken from ChEMBL document CHEMBL1201862, “PubChem BioAssay data set” (2004).
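Tested at 5 concentrations; 48 h exposure; 96-well plates; endpoints linearly interpolated, else capped at highest concentration. At the GI50, growth is halved.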 Calls of active or inactive are those of the source. Rule as the data show it: active = GI50 up to about 1.1 µM and inactive = higher.

Columns and labels:
Assay in all cases: inhibition of tumour cell growth, NCI panel, 48 h
EKVX = tested on: EKVX
M19-MEL = tested on: M19-MEL
HOP-18 = tested on: HOP-18
DMS-273 = tested on: DMS-273
MOLT-4 = tested on: MOLT-4
HOP-92 = tested on: HOP-92
SK-MEL-5 = tested on: SK-MEL-5
COLO 205 = tested on: COLO 205
LOX IMVI = tested on: LOX IMVI
NCI-H23 = tested on: NCI-H23
UACC-62 = tested on: UACC-62
SR = tested on: SR
Malme-3M = tested on: Malme-3M
SN12C = tested on: SN12C
HCC 2998 = tested on: HCC 2998
ACHN = tested on: ACHN
HCT-116 = tested on: HCT-116
SF-268 = tested on: SF-268
NCI-H522 = tested on: NCI-H522
RXF 393 = tested on: RXF 393
NCI-H226 = tested on: NCI-H226
RPMI-8226 = tested on: RPMI-8226
HOP-62 = tested on: HOP-62
OVCAR-5 = tested on: OVCAR-5
OVCAR-4 = tested on: OVCAR-4
XF498 = tested on: XF498
OVCAR-8 = tested on: OVCAR-8
SK-MEL-2 = tested on: SK-MEL-2
K562 = tested on: K562
CAKI-1 = tested on: CAKI-1
SK-OV-3 = tested on: SK-OV-3
SK-MEL-28 = tested on: SK-MEL-28
SNB-19 = tested on: SNB-19
SW-620 = tested on: SW-620
DLD-1 = tested on: DLD-1
KM-20L2 = tested on: KM-20L2
IGROV-1 = tested on: IGROV-1
OVCAR-3 = tested on: OVCAR-3
SF-539 = tested on: SF-539
RXF 631 = tested on: RXF 631
TK-10 = tested on: TK-10
LXFL 529 = tested on: LXFL 529
KM12 = tested on: KM12
A549 = tested on: A549
U-251 = tested on: U-251
DMS-114 = tested on: DMS-114
SF-295 = tested on: SF-295
HCT-15 = tested on: HCT-15
SNB-78 = tested on: SNB-78
UO-31 = tested on: UO-31
A498 = tested on: A498
UACC-257 = tested on: UACC-257
HT-29 = tested on: HT-29
M14 = tested on: M14
CCRF-CEM = tested on: CCRF-CEM
786-0 = tested on: 786-0
NCI-H460 = tested on: NCI-H460
SNB-75 = tested on: SNB-75
HL-60 = tested on: HL-60

Measured: GI50

COc1cccc(NC(=O)CC(=O)NNCC(=O)Nc2nnc(-c3ccc(N(CCC#N)S(=O)(=O)c4ccccc4)cc3)s2)c1
inactive: EKVX 41 µM | M19-MEL 44.1 µM | HOP-18 > 100 µM | DMS-273 72.1 µM | MOLT-4 35.7 µM | HOP-92 49.2 µM | SK-MEL-5 37.6 µM | COLO 205 53 µM | LOX IMVI 75.7 µM | NCI-H23 48.3 µM | UACC-62 30.7 µM | SR 28.8 µM | Malme-3M 40.7 µM | SN12C 89.7 µM | HCC 2998 > 100 µM | ACHN 34.8 µM | HCT-116 63.7 µM | SF-268 82.4 µM | NCI-H522 39 µM | RXF 393 56.4 µM | NCI-H226 > 100 µM | RPMI-8226 66.4 µM | HOP-62 88.7 µM | OVCAR-5 78.3 µM | OVCAR-4 65.8 µM | XF498 73.8 µM | OVCAR-8 > 100 µM | SK-MEL-2 > 100 µM | K562 37.6 µM | CAKI-1 > 100 µM | SK-OV-3 30.5 µM | SK-MEL-28 55.7 µM | SNB-19 > 100 µM | SW-620 > 100 µM | DLD-1 45.1 µM | KM-20L2 > 100 µM | IGROV-1 96.4 µM | OVCAR-3 78.3 µM | SF-539 > 100 µM | RXF 631 > 100 µM | TK-10 > 100 µM | LXFL 529 66.4 µM | KM12 63.5 µM | A549 67.5 µM | U-251 76.9 µM | DMS-114 41.6 µM | SF-295 87.1 µM | SNB-78 > 100 µM | UO-31 47.4 µM
> 100 µM: HCT-15

OCC12C3C4C1C1C2C3C41CO (stereo not given)
> 100 µM: HCT-15
inactive: EKVX > 100 µM | M19-MEL > 100 µM | HOP-18 > 100 µM | MOLT-4 > 100 µM | HOP-92 > 100 µM | SK-MEL-5 > 100 µM | COLO 205 > 100 µM | LOX IMVI > 100 µM | NCI-H23 > 100 µM | UACC-62 > 100 µM | Malme-3M > 100 µM | SN12C > 100 µM | A498 > 100 µM | HCC 2998 > 100 µM | ACHN > 100 µM | SF-268 > 100 µM | UACC-257 > 100 µM | HT-29 > 100 µM | NCI-H226 > 100 µM | RPMI-8226 > 100 µM | HOP-62 > 100 µM | M14 > 100 µM | OVCAR-5 > 100 µM | OVCAR-4 > 100 µM | XF498 > 100 µM | OVCAR-8 > 100 µM | K562 > 100 µM | CAKI-1 > 100 µM | SK-OV-3 > 100 µM | SK-MEL-28 > 100 µM | SNB-19 > 100 µM | SW-620 > 100 µM | DLD-1 > 100 µM | KM-20L2 > 100 µM | CCRF-CEM > 100 µM | 786-0 > 100 µM | IGROV-1 > 100 µM | NCI-H460 > 100 µM | OVCAR-3 > 100 µM | SF-539 > 100 µM | RXF 631 > 100 µM | TK-10 > 100 µM | LXFL 529 > 100 µM | A549 > 100 µM | U-251 > 100 µM | DMS-114 > 100 µM | SF-295 > 100 µM | SNB-78 > 100 µM | UO-31 > 100 µM

COc1ccc(/C(Cl)=C(\C=O)c2ccc(Cl)c(Cl)c2)cc1OC
active: SNB-75 0.294 µM
inactive: EKVX 9.53 µM | M19-MEL 8.11 µM | HOP-18 6.76 µM | DMS-273 6.73 µM | MOLT-4 2.24 µM | HOP-92 2.69 µM | SK-MEL-5 12.8 µM | COLO 205 16.7 µM | LOX IMVI 3.37 µM | NCI-H23 2.9 µM | UACC-62 4.63 µM | Malme-3M 18.3 µM | SN12C 4.28 µM | A498 15.2 µM | ACHN 4.56 µM | HCT-116 4.18 µM | SF-268 3.59 µM | NCI-H522 2.36 µM | HT-29 2.47 µM | NCI-H226 4.84 µM | RPMI-8226 2.08 µM | HL-60 2.7 µM | HOP-62 16.3 µM | M14 7.1 µM | XF498 3.05 µM | OVCAR-8 4.02 µM | SK-MEL-2 1.87 µM | K562 3.87 µM | CAKI-1 5.08 µM | SK-OV-3 38.5 µM | SK-MEL-28 13.4 µM | SNB-19 14.9 µM | SW-620 4.12 µM | DLD-1 4.46 µM | KM-20L2 6 µM | CCRF-CEM 2.73 µM | IGROV-1 > 10 µM | NCI-H460 3.4 µM | OVCAR-3 13.1 µM | SF-539 5.89 µM | RXF 631 4.57 µM | TK-10 19 µM | LXFL 529 3.55 µM | U-251 4.34 µM | DMS-114 12.4 µM | SF-295 3.79 µM | SNB-78 4.28 µM | UO-31 7.33 µM
4.34 µM: HCT-15
